pIC50: −log10 of the molar value.

Experimental findings from patent US8404691B2, “Imidazothiazole derivatives having proline ring structure” (Daiichi Sankyo Company, Limited, priority 2009, dated 2013) are described below.

In series [1] the target is T1, Mdm2/p53 binding (Homo sapiens, UniProt Q00987, L33E).
T1 construct: Mdm2 amino acids at positions 25 to 108
In words: Mdm2/p53 binding assay (HTRF, His-p53 and GST-Mdm2). Conditions: His-p53 (aa 1-132) and GST-Mdm2 (aa 25-108, L33E), 6.25 nM each, 25° C. for 1 hour. The method, then:
Next, a test compound was diluted with DMSO to produce protein buffer solution containing 10% dilution, and this buffer solution was added in an amount of 4 μL/well to the plate.
These dilutions were added in an amount of 8 μL/well (total reaction solution volume: 20 μl/well). Then, the plate was left at 25° C. for 1 hour.
The R value calculated from the well supplemented with His-p53, GST-Mdm2, the test compound, and each antibody was defined as R (sample). The R value calculated from the well supplemented with His-p53, GST-Mdm2, and each antibody but without the test compound was defined as R (control). The R value calculated from the well supplemented with GST-Mdm2, the test compound, and each antibody but without His-p53 was defined as R (background). T/C was calculated from the formula shown below. An IC50 value for Mdm2/p53 binding was calculated by sigmoid fitting. T/C=(R(sample)−R(background))/(R(control)−R(background))
For orientation: TR-FRET usually uses a lanthanide donor and a delayed reading to cut background.

In series [2] the test system is human lung cancer-derived cell line NCI-H460 having wild-type p53. Description: Cell growth inhibition assay (MTT). It is filed as cell-based. Conditions: 72 h, NCI-H460 cells, culturing 3 days, read-out: anti-cellular effect GI50 (50% growth inhibition concentration). The method, then:
A cell growth inhibition assay was conducted using human lung cancer-derived cell line NCI-H460 having wild-type p53.
NCI-H460 cells were suspended in a medium (RPMI1640 medium containing 10% fetal bovine serum) and the suspension was inoculated in an amount of 500 cells/150 μL/well to a 96-well multiwell plate. A test compound was dissolved in DMSO and this solution was diluted with medium to prepare a sample solution (DMSO concentration: 1% or lower). On the next day of inoculation, medium nonsupplemented with the test compound or the sample solution was added in an amount of 50 μL/well. The MTT assay was conducted immediately after the medium was added in an amount of 50 μL on the next day of cell inoculation, and after the sample solution or the medium was added to cells followed by culturing at 37° C. for 3 days in a 5% CO2 atmosphere. The MTT assay was conducted as shown below.
A 5 mg/mL MTT (3-(4,5-dimethylthiazol-2-yl)-2,5-diphenyltetrazolium bromide, Sigma-Aldrich Co., M-2128) solution was prepared using a phosphate buffer solution (Dulbecco's Phosphate-buffered Saline). This MTT solution was added in an amount of 20 μL/well. Then, the plate was cultured at 37° C. for 4 hours in a 5% CO2 atmosphere. The plate was centrifuged at 1200 rpm for 5 minutes and then the culture supernatant was removed by aspiration using a dispenser. DMSO was added in an amount of 150 μL/well to dissolve generated formazan. The plate was stirred using a plate mixer for uniform color development from each well. The absorbance of each well was measured under conditions of OD 540 nm and reference 660 nm using a plate reader (SpectraMax PLUS384, Molecular Devices, CA, USA).
The OD value measured on the day of adding the sample solution was defined as S. The OD value measured three days after addition of the sample solution was defined as T. The OD value measured three days after addition of the DMSO dilution was defined as C. T/C (%) was determined at each concentration according to the calculation formula shown below to prepare a dose response curve, from which 50% growth inhibition concentration (GI50 value) was calculated. T/C(%)=(T−S)/(C−S)×100

Series [3] can be described thus: Metabolic stability test (microsomal metabolism). Note: tested at 1.1 µM. In kind it is in vitro ADME. Conditions: human liver microsomes, 37° C., 30 minutes after addition of NADP+. On the procedure: 100 μL of 100 mM phosphate buffer solution (pH 7.4) containing 3 μM test compound was added to 100 μL of reaction solution containing 100 mM phosphate buffer solution (pH 7.4), 30 mM glucose 6-phosphate, 10 mM MgCl2.6H2O, 3 units/mL glucose 6-phosphate 1-dehydrogenase, and 0.3 to 1.5 mgP/mL human liver microsomes and the mixture was incubated at 37° C. for 20 minutes. Then, 70 μL of 100 mM phosphate buffer solution (pH 7.4) containing 3 mM NADP+ was added and the mixture was further incubated at 37° C. for 30 minutes to conduct a microsomal metabolism test. The compound was quantified by the internal standard method using a quadrupole mass spectrometer connected to a high performance liquid chromatography apparatus. The metabolic stability (residual percentage of compound: MS %) was determined according to the following formula: MS(human)(%)=(peak area ratio of test compound after addition of NADP+ and incubation for 30 minutes)/(peak area ratio of test compound before addition of NADP+)×100.
(peak area ratio: peak area of test compound divided by that of internal standard substance)
(Microsomes from liver hold many membrane-bound enzymes, among them those of drug oxidation.)

T1 sequence (Q00987 25-108 L33E): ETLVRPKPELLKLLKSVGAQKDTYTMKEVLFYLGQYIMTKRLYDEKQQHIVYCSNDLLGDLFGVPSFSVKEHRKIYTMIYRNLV

Broadly, the pIC50 is −log10 of the IC50, conventionally taken in molar units. A low value points to a high IC50. In the case of `CC(C)C[C@@H]1CNC2(CC2)CN1C(=O)[C@@H]1C[C@@H](F)CN1C(=O)C1=C(C(C)C)N2C(=N[C@@](C)(c3ccc(Cl)nc3)[C@H]2c2ccc(Cl)c(F)c2)S1` [Example 7, (6R)-7-[(4R)-1-{[(5R,6S)-5-(4-chloro-3-fluorophenyl)-6-(6-chloropyridin-3-yl)-3-isopropyl-6-methyl-5,6-dihydroimidazo[2,1-b][1,3]thiazol-2-yl]carbonyl}-4-fluoro-L-prolyl]-6-isobutyl-4,7-diazaspiro[2.5]octane], in series [1], the negative logarithm of the IC50 (pIC50) was 8.44. For the same compound, the GI50 in series [2] lay in the range of 400 to 2500 nM. The “MS (human) % (metabolic stability, residual percentage of compound)” value in series [3] worked out at 100%.

In the case of `CC(C)C1=C(C(=O)N2C[C@H](F)C[C@H]2C(=O)N2CCNC3(CC3)C2)SC2=N[C@@](C)(c3ccc(Cl)cc3)[C@@H](c3ccc(Cl)cc3)N21` [Example 18], the pIC50 in series [1] was 8.80. Besides, the GI50 in series [2] was less than 400 nM. In addition, in series [3], the “MS (human) % (metabolic stability, residual percentage of compound)” value was determined as 6%.

In turn, `CC(C)C1=C(C(=O)N2C[C@H](F)C[C@H]2C(=O)N2CC3(CC3)NC[C@@H]2CO)SC2=N[C@@](C)(c3ccc(Cl)nc3)[C@@H](c3ccc(Cl)c(F)c3)N21` [Example 11, {(6R)-7-[(4R)-1-{[(5R,6S)-5-(4-chloro-3-fluorophenyl)-6-(6-chloropyridin-3-yl)-3-isopropyl-6-methyl-5,6-dihydroimidazo[2,1-b][1,3]thiazol-2-yl]carbonyl}-4-fluoro-L-prolyl]-4,7-diazaspiro[2.5]oct-6-yl}methanol] had a pIC50 in series [1] of 8.49. In addition, the GI50 in series [2] lay in the range of 400 to 2500 nM. Besides, in series [3], the “MS (human) % (metabolic stability, residual percentage of compound)” value is 100%.

In series [1], `CC(C)C1=C(C(=O)N2C[C@H](F)C[C@H]2C(=O)N2CC3(CC3)NCC23CC3)SC2=N[C@@](C)(c3ccc(Cl)nc3)[C@@H](c3ccc(Cl)c(F)c3)N21` [Example 8, 4-[(4R)-1-{[(5R,6S)-5-(4-chloro-3-fluorophenyl)-6-(6-chloropyridin-3-yl)-3-isopropyl-6-methyl-5,6-dihydroimidazo[2,1-b][1,3]thiazol-2-yl]carbonyl}-4-fluoro-L-prolyl]-4,9-diazaspiro[2.2.2.2]decane] showed a pIC50 of 8.66. In addition, the GI50 in series [2] was less than 400 nM. In addition, the “MS (human) % (metabolic stability, residual percentage of compound)” value in series [3] was 95%.

Compound `CC(C)C1=C(C(=O)N2C[C@H](F)C[C@H]2C(=O)N2CC3(CC3)NC[C@H]2C)SC2=N[C@@](C)(c3ccc(Cl)nc3)[C@@H](c3ccc(Cl)cc3)N21` [Example 28] showed a pIC50 in series [1] of 8.51. The GI50 in series [2] is 400 to 2500 nM. The “MS (human) % (metabolic stability, residual percentage of compound)” value in series [3] was 51%.

Consider `CC[C@@H]1CNC2(CC2)CN1C(=O)[C@@H]1C[C@@H](F)CN1C(=O)C1=C(C(C)C)N2C(=N[C@@](C)(c3ccc(Cl)cc3)[C@H]2c2ccc(Cl)cc2)S1` [Example 22], for which the pIC50 in series [1] is 8.59. Further, the GI50 in series [2] is less than 400 nM. For the same compound, the “MS (human) % (metabolic stability, residual percentage of compound)” value in series [3] is on record as 60%.

In turn, `CC[C@H]1CNC2(CC2)CN1C(=O)[C@@H]1C[C@@H](F)CN1C(=O)C1=C(C(C)C)N2C(=N[C@@](C)(c3ccc(Cl)nc3)[C@H]2c2ccc(Cl)cc2)S1` [Example 29] gave a pIC50 in series [1] of 8.59. The GI50 in series [2] is less than 400 nM. For the same compound, the “MS (human) % (metabolic stability, residual percentage of compound)” value in series [3] worked out at 96%.

Consider `CC(C)C1=C(C(=O)N2C[C@H](F)C[C@H]2C(=O)N2CCNC3(CC3)C2)SC2=N[C@@](C)(c3ccc(Cl)nc3)[C@@H](c3ccc(Cl)cc3)N21` [Example 26], for which the negative-log IC50 (pIC50) in series [1] is 8.57. Besides, the GI50 in series [2] lay within 400 to 2500 nM. Besides, the “MS (human) % (metabolic stability, residual percentage of compound)” value in series [3] was 57%.

In turn, `CC(C)C1=C(C(=O)N2C[C@H](F)C[C@H]2C(=O)N2CC3(CC3)NC[C@@H]2C)SC2=N[C@@](C)(c3ccc(Cl)cc3)[C@@H](c3ccc(Cl)cc3)N21` [Example 19] gave a pIC50 in series [1] of 8.80. Also, in series [2], the GI50 was less than 400 nM. In addition, the “MS (human) % (metabolic stability, residual percentage of compound)” value in series [3] is reported as 93%.

As for `CC(C)C1=C(C(=O)N2C[C@H](F)C[C@H]2C(=O)N2CC3(CC3)NC[C@@H]2CF)SC2=N[C@@](C)(c3ccc(Cl)nc3)[C@@H](c3ccc(Cl)c(F)c3)N21` [Example 31], in series [1], the negative-log IC50 (pIC50) is 8.51. Moreover, the GI50 in series [2] is less than 400 nM. For the same compound, the “MS (human) % (metabolic stability, residual percentage of compound)” value in series [3] was 6%.

`CC(C)C1=C(C(=O)N2C[C@H](F)C[C@H]2C(=O)N2CCNC3(CC3)C2)SC2=N[C@@](C)(c3ccc(Cl)cc3)[C@@H](c3ccc(Cl)c(F)c3)N21` [Example 23] showed a negative logarithm of the IC50 (pIC50) in series [1] of 8.80. Further, in series [2], the GI50 was less than 400 nM. Moreover, the “MS (human) % (metabolic stability, residual percentage of compound)” value in series [3] was 24%.

As for `CC(C)C1=C(C(=O)N2CC(F)(F)C[C@H]2C(=O)N2CC3(CC3)NC[C@H]2C)SC2=N[C@@](C)(c3ccc(Cl)nc3)[C@@H](c3ccc(Cl)c(F)c3)N21` [Example 10, (6R)-7-(1-{[(5R,6S)-5-(4-chloro-3-fluorophenyl)-6-(6-chloropyridin-3-yl)-3-isopropyl-6-methyl-5,6-dihydroimidazo[2,1-b][1,3]thiazol-2-yl]carbonyl}-4,4-difluoro-L-prolyl)-6-methyl-4,7-diazaspiro[2.5]octane], in series [1], the pIC50 was 7.85. Further, the GI50 in series [2] was less than 400 nM. Moreover, the “MS (human) % (metabolic stability, residual percentage of compound)” value in series [3] amounted to 48%.
